ChEMBL document CHEMBL5380878, “A beginner's guide to current synthetic linker strategies towards VHL-recruiting PROTACs” (Bioorg Med Chem, 2023)

Columns and labels:
Type in all cases: cell-based
[1] = molecular target: von Hippel-Lindau disease tumor suppressor/Leucine-rich repeat serine/threonine-protein kinase 2 (Homo sapiens, UniProt P40337+Q5S007); experiment: PROTAC activity at VHL/LRRK2 in human MV4-11 cells assessed as induction of LRRK2 degradation by Western blot analysis
[2] = molecular target: von Hippel-Lindau disease tumor suppressor/Leucine-rich repeat serine/threonine-protein kinase 2 (Homo sapiens) (UniProt Q5S007+P40337); experiment: PROTAC activity at VHL/LRRK2 in human MV4-11 cells assessed as LRRK2 degradation by measuring maximal efficacy by Western blot analysis relative to control
Sequence of von Hippel-Lindau disease tumor suppressor/Leucine-rich repeat serine/threonine-protein kinase 2 (Homo sapiens) (P40337 whole entry, looked up): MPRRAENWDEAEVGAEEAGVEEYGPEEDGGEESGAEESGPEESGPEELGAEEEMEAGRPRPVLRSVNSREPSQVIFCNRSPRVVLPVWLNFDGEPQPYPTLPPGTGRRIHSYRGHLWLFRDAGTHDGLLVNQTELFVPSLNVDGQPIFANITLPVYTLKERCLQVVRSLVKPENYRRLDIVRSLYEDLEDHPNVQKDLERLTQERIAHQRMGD
Sequence of von Hippel-Lindau disease tumor suppressor/Leucine-rich repeat serine/threonine-protein kinase 2 (Homo sapiens) (Q5S007 whole entry, looked up): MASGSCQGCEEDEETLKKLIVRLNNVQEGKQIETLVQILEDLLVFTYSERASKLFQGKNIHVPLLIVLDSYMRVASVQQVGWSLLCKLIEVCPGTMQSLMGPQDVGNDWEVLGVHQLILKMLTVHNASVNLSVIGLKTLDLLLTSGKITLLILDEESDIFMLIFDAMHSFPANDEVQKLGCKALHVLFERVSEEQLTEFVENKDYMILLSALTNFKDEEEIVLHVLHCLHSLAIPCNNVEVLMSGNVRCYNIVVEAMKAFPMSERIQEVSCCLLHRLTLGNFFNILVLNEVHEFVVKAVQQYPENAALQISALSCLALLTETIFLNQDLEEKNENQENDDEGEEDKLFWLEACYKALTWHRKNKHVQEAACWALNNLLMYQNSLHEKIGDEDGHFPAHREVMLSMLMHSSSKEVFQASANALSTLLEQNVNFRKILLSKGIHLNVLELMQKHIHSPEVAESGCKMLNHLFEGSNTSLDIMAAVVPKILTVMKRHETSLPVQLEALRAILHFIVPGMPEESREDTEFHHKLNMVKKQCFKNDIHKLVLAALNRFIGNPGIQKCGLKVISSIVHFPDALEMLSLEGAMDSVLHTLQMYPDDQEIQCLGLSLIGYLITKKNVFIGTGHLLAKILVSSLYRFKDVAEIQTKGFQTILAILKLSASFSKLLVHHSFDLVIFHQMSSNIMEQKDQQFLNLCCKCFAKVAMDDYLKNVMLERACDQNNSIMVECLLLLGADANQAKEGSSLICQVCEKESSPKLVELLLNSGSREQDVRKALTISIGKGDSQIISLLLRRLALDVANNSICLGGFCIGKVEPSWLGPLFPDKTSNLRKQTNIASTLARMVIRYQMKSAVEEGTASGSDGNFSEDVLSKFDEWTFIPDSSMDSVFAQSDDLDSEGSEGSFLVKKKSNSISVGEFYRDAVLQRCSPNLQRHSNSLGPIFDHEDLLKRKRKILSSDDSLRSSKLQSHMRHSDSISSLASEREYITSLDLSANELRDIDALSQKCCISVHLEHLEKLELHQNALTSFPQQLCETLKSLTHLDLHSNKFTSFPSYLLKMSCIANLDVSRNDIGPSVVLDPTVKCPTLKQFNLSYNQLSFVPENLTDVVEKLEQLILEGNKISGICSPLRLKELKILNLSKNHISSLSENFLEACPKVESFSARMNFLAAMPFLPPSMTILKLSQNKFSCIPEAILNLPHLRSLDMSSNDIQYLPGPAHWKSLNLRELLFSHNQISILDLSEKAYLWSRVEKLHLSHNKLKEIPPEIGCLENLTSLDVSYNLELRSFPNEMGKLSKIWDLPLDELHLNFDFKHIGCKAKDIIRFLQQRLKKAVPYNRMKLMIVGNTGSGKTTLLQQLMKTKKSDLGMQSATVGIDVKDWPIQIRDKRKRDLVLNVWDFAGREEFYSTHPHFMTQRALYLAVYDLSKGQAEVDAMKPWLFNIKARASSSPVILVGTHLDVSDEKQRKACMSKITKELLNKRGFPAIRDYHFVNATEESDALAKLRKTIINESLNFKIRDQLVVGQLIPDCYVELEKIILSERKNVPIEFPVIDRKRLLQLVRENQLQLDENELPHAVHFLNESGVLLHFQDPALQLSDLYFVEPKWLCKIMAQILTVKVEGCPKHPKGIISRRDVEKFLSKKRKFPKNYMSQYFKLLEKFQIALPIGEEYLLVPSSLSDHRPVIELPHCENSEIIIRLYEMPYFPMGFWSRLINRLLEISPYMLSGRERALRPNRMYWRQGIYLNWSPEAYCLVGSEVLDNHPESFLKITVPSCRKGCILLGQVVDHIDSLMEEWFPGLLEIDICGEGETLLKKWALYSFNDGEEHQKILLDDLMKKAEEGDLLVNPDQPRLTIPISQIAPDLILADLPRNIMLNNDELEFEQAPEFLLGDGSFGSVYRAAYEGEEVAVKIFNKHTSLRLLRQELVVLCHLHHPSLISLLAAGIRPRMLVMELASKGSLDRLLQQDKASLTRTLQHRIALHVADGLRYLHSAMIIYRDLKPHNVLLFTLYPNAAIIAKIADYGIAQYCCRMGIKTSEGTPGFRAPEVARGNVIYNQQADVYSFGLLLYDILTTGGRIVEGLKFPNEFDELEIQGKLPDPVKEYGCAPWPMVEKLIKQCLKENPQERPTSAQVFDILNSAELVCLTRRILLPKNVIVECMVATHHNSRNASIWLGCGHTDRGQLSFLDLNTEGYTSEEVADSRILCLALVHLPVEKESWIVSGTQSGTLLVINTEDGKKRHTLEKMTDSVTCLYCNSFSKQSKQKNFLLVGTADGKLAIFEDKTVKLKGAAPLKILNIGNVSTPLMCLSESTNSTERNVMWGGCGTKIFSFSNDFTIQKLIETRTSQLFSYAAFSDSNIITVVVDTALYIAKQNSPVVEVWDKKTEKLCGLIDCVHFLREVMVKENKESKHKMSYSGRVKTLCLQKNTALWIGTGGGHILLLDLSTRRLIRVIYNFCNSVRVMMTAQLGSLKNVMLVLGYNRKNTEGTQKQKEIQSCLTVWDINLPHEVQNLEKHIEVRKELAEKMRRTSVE

[3] = molecular target: von Hippel-Lindau disease tumor suppressor/Cyclin-dependent kinase 6 (Homo sapiens, UniProt P40337+Q00534); experiment: PROTAC activity at VHL/CDK6 in human MV4-11 cells assessed as induction of CDK6 degradation by Western blot analysis
Sequence of von Hippel-Lindau disease tumor suppressor/Cyclin-dependent kinase 6 (Q00534 whole entry): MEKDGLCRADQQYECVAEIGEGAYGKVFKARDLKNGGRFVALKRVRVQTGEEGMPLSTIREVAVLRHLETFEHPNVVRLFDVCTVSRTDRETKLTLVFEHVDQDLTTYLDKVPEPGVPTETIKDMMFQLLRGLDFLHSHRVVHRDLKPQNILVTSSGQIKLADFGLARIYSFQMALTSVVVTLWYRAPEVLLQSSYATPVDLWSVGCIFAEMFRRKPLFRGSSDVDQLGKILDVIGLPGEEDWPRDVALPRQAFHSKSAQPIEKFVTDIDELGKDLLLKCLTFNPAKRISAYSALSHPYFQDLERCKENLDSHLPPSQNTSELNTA
Sequence of von Hippel-Lindau disease tumor suppressor/Cyclin-dependent kinase 6 (P40337 whole entry): as the sequence (P40337 whole entry, looked up) above

[4] = molecular target: von Hippel-Lindau disease tumor suppressor/Cyclin-dependent kinase 6 (Homo sapiens) (UniProt Q00534+P40337); experiment: PROTAC activity at VHL/CDK6 in human MV4-11 cells assessed as CDK6 degradation by measuring maximal efficacy by Western blot analysis
Sequence of von Hippel-Lindau disease tumor suppressor/Cyclin-dependent kinase 6 (Homo sapiens) (P40337 whole entry, looked up): as above
Sequence of von Hippel-Lindau disease tumor suppressor/Cyclin-dependent kinase 6 (Homo sapiens) (Q00534 whole entry, looked up): as the sequence (Q00534 whole entry) above

[5] = molecular target: T1, von Hippel-Lindau disease tumor suppressor/Receptor-type tyrosine-protein kinase FLT3 (Homo sapiens, UniProt P36888+P40337); experiment: PROTAC activity at VHL/FLT3 in human MV4-11 cells assessed as induction of FLT3 degradation by Western blot analysis
[6] = molecular target: T1, von Hippel-Lindau disease tumor suppressor/Receptor-type tyrosine-protein kinase FLT3; experiment: PROTAC activity at VHL/FLT3 in human MV4-11 cells assessed as FLT3 degradation by measuring maximal efficacy by Western blot analysis relative to control
Target sequence in this assay (P36888 27-993 limits assumed): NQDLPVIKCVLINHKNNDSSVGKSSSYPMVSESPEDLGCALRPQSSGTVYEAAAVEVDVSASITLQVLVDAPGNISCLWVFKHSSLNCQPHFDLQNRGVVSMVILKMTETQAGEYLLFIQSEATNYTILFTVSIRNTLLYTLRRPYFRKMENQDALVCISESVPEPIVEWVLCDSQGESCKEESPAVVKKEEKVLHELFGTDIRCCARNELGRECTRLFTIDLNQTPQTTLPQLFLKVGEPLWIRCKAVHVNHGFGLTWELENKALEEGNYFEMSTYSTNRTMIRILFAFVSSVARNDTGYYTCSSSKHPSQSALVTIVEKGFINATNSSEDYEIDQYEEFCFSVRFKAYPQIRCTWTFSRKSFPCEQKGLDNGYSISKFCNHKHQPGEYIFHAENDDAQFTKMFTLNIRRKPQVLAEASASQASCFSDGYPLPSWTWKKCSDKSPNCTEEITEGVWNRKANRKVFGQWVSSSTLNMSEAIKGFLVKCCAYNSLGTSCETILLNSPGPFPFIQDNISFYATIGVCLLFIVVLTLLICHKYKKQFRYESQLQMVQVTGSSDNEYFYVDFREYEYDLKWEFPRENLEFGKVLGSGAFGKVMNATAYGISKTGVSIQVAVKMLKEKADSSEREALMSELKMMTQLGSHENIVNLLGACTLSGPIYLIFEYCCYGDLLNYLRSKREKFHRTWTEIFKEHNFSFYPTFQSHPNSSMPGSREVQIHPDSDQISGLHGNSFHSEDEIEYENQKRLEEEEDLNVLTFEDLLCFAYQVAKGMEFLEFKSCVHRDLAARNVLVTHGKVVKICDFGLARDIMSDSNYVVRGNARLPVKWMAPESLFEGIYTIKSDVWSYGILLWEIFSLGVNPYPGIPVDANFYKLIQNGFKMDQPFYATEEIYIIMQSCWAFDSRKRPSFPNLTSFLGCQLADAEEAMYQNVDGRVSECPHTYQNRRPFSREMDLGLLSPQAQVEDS
Target sequence in this assay (P40337 whole entry partner): as the sequence (P40337 whole entry, looked up) above

[7] = molecular target: von Hippel-Lindau disease tumor suppressor/Bromodomain-containing protein 4 (Homo sapiens, UniProt O60885+P40337); experiment: PROTAC activity in VHL/BRD4 in human MV4-11 cells assessed as induction of BRD4 degradation by Western blot analysis
Sequence of von Hippel-Lindau disease tumor suppressor/Bromodomain-containing protein 4 (P40337 whole entry, looked up, other chains not shown): as the sequence (P40337 whole entry, looked up) above

Sequence of von Hippel-Lindau disease tumor suppressor/Leucine-rich repeat serine/threonine-protein kinase 2 (Q5S007 whole entry): as the sequence (Q5S007 whole entry, looked up) above
Sequence of von Hippel-Lindau disease tumor suppressor/Leucine-rich repeat serine/threonine-protein kinase 2 (P40337 whole entry): as the sequence (P40337 whole entry, looked up) above

## CNc1nc(Nc2ccc(C(=O)N3CCN(C[C@H]4CC[C@H](CSC(C)(C)[C@H](NC(=O)C5(F)CC5)C(=O)N5C[C@H](O)C[C@H]5C(=O)NCc5ccc(-c6scnc6C)cc5)CC4)CC3)cc2OC)ncc1Cl
[1]
  EC50: 15 nM
[2]
  Emax: > 82%

## CC(=O)c1c(C)c2cnc(Nc3ccc(N4CCN(CCOCCOCCOc5cc(-c6scnc6C)ccc5CNC(=O)[C@@H]5C[C@@H](O)CN5C(=O)[C@@H](NC(=O)C5(F)CC5)C(C)(C)C)CC4)cn3)nc2n(C2CCCC2)c1=O
[3]
  EC50: 5.1 nM
[4]
  Emax: 95%

## Cc1ncsc1-c1ccc(CNC(=O)[C@@H]2C[C@@H](O)CN2C(=O)[C@@H](NC(=O)CCOCCOCCOc2ccc3c(c2)sc2nc(-c4ccc(NC(=O)Nc5cc(C(C)(C)C)on5)cc4)cn23)C(C)(C)C)cc1
[5]
  EC50: < 5 nM
[6]
  Emax: 90%

## Cc1cc([C@H](C(=O)N2C[C@H](O)C[C@H]2C(=O)N[C@@H](C)c2ccc(-c3scnc3C#CCOCCOCCOCCOCCNC(=O)C[C@@H]3N=C(c4ccc(Cl)cc4)c4c(sc(C)c4C)-n4c(C)nnc43)cc2)C(C)C)on1
[7]
  EC50: 16 nM
